Consider six molecules from PMC5372986, “Diminished Antimicrobial Peptide and Antifungal Antibiotic Activities against Candida albicans in Denture Adhesive” (Antibiotics, 2017).

One experiment has as its system C. albicans ATCC 64124. Description: microbe, parasite or virus in culture. The settings on record: for Activity in gels with 1.0% denture adhesive compared with gels without / Minimal inhibitory concentration (MIC): C. albicans ATCC 64124; for Activity in gels with 1.0% denture adhesive compared with gels without: result in words, Tukey HSD, 0.05 level; for MIC: Candida albicans. The method, then:
(§1) C. albicans strains ATCC 64124 and HMV4C were used and cultivated as previously described. Their identities were verified (State Hygienic Laboratory, University of Iowa Research Park, Coralville, IA, USA). These cultures were adjusted to contain 1.2–3.7 × 10^6 CFU/mL in Roswell Park Memorial Institute (RPMI) 1640 medium.
(§2) The denture adhesive used was a standard, over-the-counter gel containing poly sodium-calcium mixed partial salt, petrolatum, cellulose gum, and mineral oil and was prepared as previously described. Denture adhesive was too viscous to use directly and was diluted to 1.0% for incorporation into the radial diffusion assay.
(§3) Each agent was reconstituted in distilled water with 0.01% acetic acid for resuspension to keep the agent in solution. Two-fold dilutions were prepared.
(§4) The radial diffusion assays were performed as described with the following unique modifications. Underlay agarose gels were prepared with and without 1.0% denture adhesive in square petri dishes (Electron Microscopy Sciences, Hatfield, PA, USA). Plates without 1.0% adhesive contained 12.5 mL of 10.0 mM sodium phosphate buffer adjusted to pH 7.4, 12.5 mL of 2.0% agarose (Agarose LE, Roche Diagnostics Corporation, Indianapolis, IN, USA) in 10.0 mM sodium phosphate adjusted to pH 7.4, and 1.0 mL of C. albicans culture per plate. Plates with 1.0% adhesive contained 12.5 mL of 2.0% dental adhesive in 10.0 mM sodium phosphate adjusted to pH 7.4, 12.5 mL 2.0% agarose (Agarose LE, Roche Diagnostics Corporation, Indianapolis, IN, USA) in 10.0 mM sodium phosphate adjusted to pH 7.4, and 1.0 mL of C. albicans culture. Wells of 2.0 mm in diameter were created and filled with 5.0 µL of AMP or antifungal antibiotic dilution (n = three replications per test). A blank of 0.01% acetic acid in distilled water was also included. The plates were incubated at 37 °C for 3 h. After incubation, 10.0 mL of overlay containing 1.0% agarose in 10.0 mM phosphate buffer with 6.0% RPMI 1640, was added to each plate. The plates were incubated at 37 °C overnight. At 24 h, antimicrobial activity was determined by measuring the zone of clearance around the center of each well and extrapolating MIC as described.
(§5) When MICs fell outside the range of the assay, we considered the MIC to be equal to the highest concentration used in the assay. […] One-way fixed-effects ANOVA models were fit to the µM MIC values. Pairwise group comparisons were conducted using the method of Tukey’s Honest Significant Differences (HSD). A 0.05 level was used to determine statistically significant differences. All analyses were conducted using JMP (Version 10.0, SAS, Cary, NC, USA).

Another experiment concerns C. albicans HMV4C. Kind of experiment: microbe, parasite or virus in culture. The note with it: radial diffusion; for Activity in gels with 1.0% denture adhesive compared with gels without / Minimal inhibitory concentration (MIC): C. albicans HMV4C; for Activity in gels with 1.0% denture adhesive compared with gels without: result in words, Tukey HSD, 0.05 level; for MIC: Candida albicans, HMV4C; for MIC / Minimal inhibitory concentration (MIC): mean (standard error, n = 3). As to the method:
as §1, §2, §3, §4, §5

Another experiment deals with Candida albicans. The settings on record: broth microdilution, p < 0.05; cited from earlier work. From the text: Candida species infections can cause complications for individuals with dentures, such as denture stomatitis.
A general note: Broth dilution looks for growth in wells or tubes with falling amounts of substance.

[1] abbreviates: ATCC64124, 24 h, pH 7.4, read-out: Minimal inhibitory concentration (MIC), C. albicans ATCC 64124, Adhesive (1.0% denture adhesive in gel), radial diffusion, pH 7.4, 37 °C, read at 24 h, mean (standard error, n = 3).
[2] abbreviates: ATCC64124, 24 h, pH 7.4, read-out: Minimal inhibitory concentration (MIC), C. albicans ATCC 64124, No Adhesive, radial diffusion, pH 7.4, 37 °C, read at 24 h, mean (standard error, n = 3).
Where [3] appears, read: ATCC64124, read-out: Minimal inhibitory concentration (MIC), C. albicans ATCC 64124, Adhesive (1.0% denture adhesive in gel), radial diffusion, mean (standard error, n = 3).
Where [4] appears, read: ATCC64124, read-out: Minimal inhibitory concentration (MIC), C. albicans ATCC 64124, No Adhesive, radial diffusion, mean (standard error, n = 3).
Setting [5] is: 24 h, pH 7.4, read-out: Minimal inhibitory concentration (MIC), C. albicans HMV4C, Adhesive (1.0% denture adhesive in gel), pH 7.4, 37 °C, read at 24 h.
Where [6] appears, read: 24 h, pH 7.4, read-out: Minimal inhibitory concentration (MIC), C. albicans HMV4C, No Adhesive, agarose in 10.0 mM sodium phosphate pH 7.4, 37 °C, read at 24 h.
Setting [7] is: read-out: Minimal inhibitory concentration (MIC), C. albicans HMV4C, Adhesive (1.0% denture adhesive in gel).
Where [8] appears, read: read-out: Minimal inhibitory concentration (MIC), C. albicans HMV4C, No Adhesive.
The mark [9] stands for this setting: Adhesive (1.0% denture adhesive in gel), radial diffusion, pH 7.4, 37 °C, read at 24 h, mean (standard error, n = 3).
The mark [10] stands for this setting: Adhesive (1.0% denture adhesive in gel), radial diffusion, mean (standard error, n = 3).
[11] abbreviates: No Adhesive, radial diffusion, pH 7.4, 37 °C, read at 24 h, mean (standard error, n = 3).
Setting [12] is: No Adhesive, radial diffusion, mean (standard error, n = 3).
Setting [13] is: Adhesive (1.0% denture adhesive in gel), pH 7.4, 37 °C, read at 24 h.
Setting [14] is: Adhesive (1.0% denture adhesive in gel).
Setting [15] is: No Adhesive, agarose in 10.0 mM sodium phosphate pH 7.4, 37 °C, read at 24 h.

Molecules are shown by their SMILES. Converted amounts (≈) assume the structure as drawn. Structures can show the parent of a compound that is named as a salt. Where two headings read alike, the source gives them in different places.

Consider `C[C@@H]1[C@H](O)[C@@H](C)/C=C/C=C/C=C/C=C/C=C/C=C/C=C/[C@H](O[C@@H]2O[C@H](C)[C@@H](O)[C@H](N)[C@@H]2O)C[C@@H]2O[C@](O)(C[C@@H](O)C[C@@H](O)[C@H](O)CC[C@@H](O)C[C@@H](O)CC(=O)O[C@H]1C)C[C@H](O)[C@H]2C(=O)O` [Amphotericin B], for which the “Activity in gels with 1.0% denture adhesive compared with gels without” value with C. albicans ATCC 64124 (radial diffusion) and in the experiment on C. albicans HMV4C was “same” in each case. For the same molecule, the MIC stood at 16.6 µg/mL with C. albicans ATCC 64124 (setting [1]); 6 µg/mL in the experiment with C. albicans ATCC 64124 (setting [2]); 18 µM in the experiment on C. albicans ATCC 64124 (setting [3]); 6.5 µM in the experiment on C. albicans ATCC 64124 (setting [4]); 6.2 µg/mL in the experiment with C. albicans HMV4C (setting [5]); 5.4 µg/mL in the experiment with C. albicans HMV4C (setting [6]). Also, the MIC with C. albicans HMV4C (setting [7]) came out at 6.7 µM; with C. albicans HMV4C (setting [8]), 5.8 µM. In the experiment with Candida albicans, the “Loss of antimicrobial activity in 1.0% denture adhesive” value (from here on “Loss … in 1.0% denture adhesive”) is listed as “did not”.
Consider `[H]/N=C(\N/C(=N/[H])NCCCCCCNC(=N)NC(=N)Nc1ccc(Cl)cc1)Nc1ccc(Cl)cc1` [Chlorhexidine dihydrochloride], for which the “Activity in gels with 1.0% denture adhesive compared with gels without” value with C. albicans ATCC 64124 (radial diffusion) and in the experiment on C. albicans HMV4C was “same” throughout. Besides, the MIC in the experiment on C. albicans ATCC 64124 (setting [1]) was 4.6 µg/mL; with C. albicans ATCC 64124 (setting [2]), 6.9 µg/mL; with C. albicans ATCC 64124 (setting [3]), 8 µM; in the experiment with C. albicans ATCC 64124 (setting [4]) it was 11.9 µM; in the experiment with C. albicans HMV4C (setting [5]), 11.1 µg/mL; in the experiment on C. albicans HMV4C (setting [6]), 5.7 µg/mL. Moreover, the results for the MIC in the experiment on C. albicans HMV4C (setting [7]) and in the experiment with C. albicans HMV4C (setting [8]) were 19.2 µM and 9.9 µM, respectively. In the experiment with Candida albicans, the “Loss … in 1.0% denture adhesive” value is “did not”.
As for `N=C(NCCCCCCNC(=N)NC(=N)Nc1ccc(Cl)cc1)NC(=N)Nc1ccc(Cl)cc1.O=C(O)[C@H](O)[C@@H](O)[C@H](O)[C@H](O)CO.O=C(O)[C@H](O)[C@@H](O)[C@H](O)[C@H](O)CO` [Chlorhexidine gluconate], the “Minimal inhibitory concentration (MIC)” value is recorded as 81.6 (3.2) µg/mL with C. albicans ATCC 64124 (setting [9]); 90.9 (3.6) µM in the experiment with C. albicans ATCC 64124 (setting [10]); 4.1 (0.2) µg/mL in the experiment on C. albicans ATCC 64124 (setting [11]); 4.6 (0.2) µM with C. albicans ATCC 64124 (setting [12]); 0.7 (0.4) µg/mL in the experiment on C. albicans HMV4C (setting [13]); 0.8 (0.4) µM with C. albicans HMV4C (setting [14]). Besides, the “Minimal inhibitory concentration (MIC)” value in the experiment with C. albicans HMV4C (setting [15]) was 6.3 (0.1) µg/mL; in the experiment with C. albicans HMV4C (No Adhesive) it was 7.0 (0.1) µM. Further, the “Activity in gels with 1.0% denture adhesive compared with gels without” value is listed as “diminished antimicrobial activity” with C. albicans ATCC 64124 (radial diffusion) and “same antimicrobial activity” in the experiment with C. albicans HMV4C. Moreover, in the experiment with Candida albicans, the “Loss … in 1.0% denture adhesive” value is reported as “did not”.
As to `OC(Cn1cncn1)(Cn1cncn1)c1ccc(F)cc1F` [Fluconazole], the “Minimal inhibitory concentration (MIC)” value with C. albicans ATCC 64124 (in both gels with or without 1.0% denture adhesive) was 3265.1 µM (≈ 1000 µg/mL). Moreover, the “Activity in gels with 1.0% denture adhesive compared with gels without” value with C. albicans ATCC 64124 (radial diffusion) and with C. albicans HMV4C was “same” in each case. For the same molecule, the MIC in the experiment with C. albicans ATCC 64124 (setting [1]) is greater than 1000 µg/mL; in the experiment with C. albicans ATCC 64124 (setting [2]), greater than 1000 µg/mL; in the experiment with C. albicans ATCC 64124 (setting [3]), greater than 3270 µM; in the experiment with C. albicans ATCC 64124 (setting [4]), greater than 3270 µM; with C. albicans ATCC 64124 (ATCC64124, read-out: Minimal inhibitory concentration (MIC), C. albicans ATCC 64124, in both gels with or without 1.0% denture adhesive), greater than 1000 µg/mL; in the experiment on C. albicans HMV4C (setting [5]) it was 8.1 µg/mL. Further, the MIC worked out at 3.9 µg/mL in the experiment with C. albicans HMV4C (setting [6]), 26.4 µM in the experiment with C. albicans HMV4C (setting [7]) and 12.7 µM in the experiment with C. albicans HMV4C (setting [8]). The “Loss … in 1.0% denture adhesive” value in the experiment with Candida albicans is “did not”.
Consider `CC[C@H](C)[C@@H]1NC(=O)[C@H](CO)NC(=O)[C@@H]2CCCN2C(=O)[C@H](C)NC(=O)CNC(=O)[C@H](CC(C)C)NC(=O)[C@H](CCCCN)NC(=O)[C@H](CCCCN)NC(=O)[C@H](CCSC)NC(=O)[C@H](CCCNC(=N)N)NC(=O)[C@H](Cc2c[nH]c3ccccc23)NC(=O)[C@H](CCC(N)=O)NC(=O)[C@H](Cc2c[nH]c3ccccc23)NC(=O)[C@H](CCCNC(=N)N)NC(=O)[C@H](CCCNC(=N)N)NC(=O)[C@@H](NC(=O)[C@H](CCCCN)NC(=O)[C@@H](N)Cc2ccccc2)CSSC[C@@H](C(=O)N[C@H](C(=O)N[C@@H](CCCNC(=N)N)C(=O)N[C@@H](CCCNC(=N)N)C(=O)N[C@@H](C)C(=O)N[C@@H](Cc2ccccc2)C(=O)O)C(C)C)NC(=O)[C@H]([C@@H](C)O)NC1=O` [Lactoferricin B], for which the “Activity in gels with 1.0% denture adhesive compared with gels without” value in the experiment on C. albicans ATCC 64124 (radial diffusion) and in the experiment on C. albicans HMV4C was “diminished activity” each time. Further, the “Loss … in 1.0% denture adhesive” value in the experiment on Candida albicans is listed as “lost antimicrobial activity”.
Consider `C[C@@H]1[C@H](O)[C@@H](C)/C=C/C=C/CC/C=C/C=C/C=C/C=C/C(O[C@H]2O[C@H](C)[C@@H](O)[C@H](N)[C@@H]2O)CC2O[C@](O)(CC(O)C(O)CCC(O)CC(O)CC(O)CC(=O)O[C@H]1C)CC(O)C2C(=O)O` (stereo partly drawn) [Nystatin], for which the “Minimal inhibitory concentration (MIC)” value in the experiment on C. albicans ATCC 64124 (setting [9]) is on record as 61.0 (2.5) µg/mL; with C. albicans ATCC 64124 (setting [10]) it was 65.9 (2.7) µM; in the experiment with C. albicans ATCC 64124 (setting [11]), 9.7 (0.2) µg/mL; with C. albicans ATCC 64124 (setting [12]), 10.5 (0.2) µM; with C. albicans HMV4C (setting [13]), 137.2 (8.2) µg/mL; in the experiment on C. albicans HMV4C (setting [14]) it was 148.1 (8.9) µM. In addition, the “Minimal inhibitory concentration (MIC)” value in the experiment on C. albicans HMV4C (setting [15]) is 9.4 (0.2) µg/mL; in the experiment with C. albicans HMV4C (No Adhesive), 10.2 (0.2) µM. Also, the “Activity in gels with 1.0% denture adhesive compared with gels without” value in the experiment with C. albicans ATCC 64124 (radial diffusion) and with C. albicans HMV4C was “diminished” in each case. Also, the “Loss … in 1.0% denture adhesive” value in the experiment on Candida albicans is given as “did not”.
